The source of these data is a melting point compilation (Tetko et al.; mined from patent text by program, amines drawn as free bases though some values may be those of a salt).

The structures appear in SMILES notation.

In general, melting point refers to the temperature, or range, at which the solid turns liquid. `CC(=O)N(c1ccccc1)c1ccccc1-c1ccc(I)cc1` had a melting point of 135 to 136 °C.

`C=CCn1c(NCCOc2ccccc2)nc(N2CCc3ccccc3CC2)c(C#N)c1=O` came in with a melting point of 157 to 160 °C. In turn, `CCOC(=O)c1nc2n(n1)-c1ccc(Cl)cc1C(c1ccccc1)=NC2` displayed a melting point of 137 to 138 °C.

`Cc1ccccc1N1CCN(CCn2c(=O)[nH]c3cscc3c2=O)CC1`: the melting point was in the range of 214 to 216 °C. For `CN1CSC(Cc2cc(C(C)(C)C)c(O)c(C(C)(C)C)c2)C1=O` (configuration not stated), the melting point fell in the range of 102 to 105 °C. The figure for `N#Cc1ccccc1CSc1nc2cnccc2[nH]1` is 200 to 202 °C. The molecule `CC(=O)N(c1ccc(O)cc1)C(C)C` displayed a melting point of 152 to 153 °C. Then `Cc1nc2ccccc2n1Cc1ccc(-n2c(C)nc3cnccc32)cc1`, with 184 to 185 °C; and `CC(=O)C1=C(O)C(=C(C)Nc2ccc(NC(N)=O)cc2)C(=O)OC1=O`, with 250 to 253 °C; and `O=Cc1ccc(C=Cc2ccccc2)cc1`, with 112 to 113 °C. In turn, `NC(=O)c1c(C(=O)O)cnn1-c1ccc(Cl)cc1` showed a melting point of 249 to 250 °C. Then `NCc1cc(-c2ccc(Cl)cc2)no1`, with 81 °C.

The molecule `CCOC(=O)C(=CNc1cccc(C)n1)C(=O)OCC` had a melting point of 102 to 104 °C. The figure for `O=C(O)[C@@H]1C[C@H]2C[C@@H](CCc3cc(O)no3)CC[C@H]2CN1` (racemic) is 256 °C; for `COc1cc(C(=O)c2c[nH]c(-c3ccc(C)cc3)n2)cc(OC)c1OC` it is 201 to 203 °C. Then `O=S1NC(Cc2coc3ccccc23)=NO1` (configuration not stated), with 138 to 140 °C; and `Cc1ccc(S(=O)(=O)OCCC2(O)CCc3cc(F)ccc3C2C(C)C)cc1` (configuration not stated), with 65 to 67 °C; and `CCn1nc2c(N)nc3cc(OC)ccc3c2c1CCc1ccccc1`, with 162 to 163 °C.

For `CC(C)(C)c1cc(-c2nn(C3CCOC3=O)c3ncccc23)cc(C(C)(C)C)c1O` (configuration not stated), the melting point is 164 to 167 °C.

Consider `OC1CCCc2ccc(-c3ccc4nc(-c5ccc(Cl)cc5)cn4c3)cc21` (configuration not stated), for which the melting point is 232 to 234 °C. Turning to `CC(=O)Nc1ccc(C(C)(C)C)cc1F`, the melting point lay in the range of 164 to 165 °C. Then `CCCCC[C@H]1CC[C@H](/C=C/COc2ccc(C=O)cc2)CC1`, with 54 to 55 °C. Then `OCc1cc(I)cc(I)c1I`, with 156 to 159 °C; and `COc1ccc2c(n1)c(CCNC(C)=O)c1n2CCCO1`, with 92 to 93 °C. Then `CC(C)c1ccc(S(=O)(=O)n2c(Cc3ccc(C(=O)O)c(F)c3)cc3cc(C(F)(F)F)ccc32)cc1`, with 197 °C.

`O=C1Nc2ccc(-c3cccc(Cl)c3)cc2C(c2ccccc2)O1` (configuration not stated) registered a melting point of 177 to 178 °C.

`O=C(O)CNC1Cc2ccccc2C1` showed a melting point of 211 to 214 °C. The figure for `COC=Nc1c(SC)c(-c2ncon2)nn1-c1c(Cl)cc(C(F)(F)F)cc1Cl` is 119 to 121 °C; for `CCOC(=O)c1csc(Nc2ccccc2)n1` it is 140 to 142 °C. The figure for `NS(=O)(=O)c1ccc(NC(=O)Nc2ccc(I)cc2)cc1` is 275 to 277 °C. In turn, `CCOC(=O)COc1ccc(C(=O)c2ccoc2)c2ccccc12` yielded a melting point of 103 °C. Then `O=C1c2ccccc2C2(O)Oc3c(ccc4ccccc34)C12O` (configuration not stated), with 216 to 218 °C; and `COc1ccc(CNC(=O)c2cc(C)sc2N)cc1OC`, with 175 °C; and `CC(=O)OCC1OC(n2cc(Cc3ccc(C4CC4)cc3)c3c(F)cccc32)C(OC(C)=O)C(OC(C)=O)C1OC(C)=O` (configuration not stated), with 190 to 192 °C. The figure for `O=c1[nH]c2c(c(O)c1[N+](=O)[O-])CCCCC2` is > 264 °C; for `CC(C)n1nc(O)nc1Cl` it is 100 to 104 °C; for `Cc1sc(-c2ccccc2)nc1COc1cc(CO)on1` it is 84 to 85 °C.
